Source: patent publication US9546157B2, “Asymmetric piperidinyl-substituted ureas as medicines” (Helsinn Healthcare SA, priority 2014, dated 2017)
Entries after “also recorded” stand apart in the source; their conditions may differ.

Assays:
[1] = biological target: T1, GHSR1a (Homo sapiens, UniProt Q92847); assay: Calcium FLIPR assay, GHSR-1a antagonism (reduction of ghrelin response); format: cell-based; details: HEK293/GHSR1a cells, ghrelin 10 nM
T1 construct: expressed in transfected cells; host or cells: HEK293
Outline: (§1)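 Relative fluorescence read-out (FLIPR) of intracellular calcium in HEK293/GHSR1a cells. For antagonist mode, compound and 10 nM ghrelin were co-added at t=20 sec, and inhibition of the ghrelin response over 2 minutes gave IC50. Agonist mode: compound alone at t=20 sec, response tracked 2 minutes; EC50 from dose-response.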

[2] = biological target: T1, GHSR1a; assay: Calcium FLIPR assay, GHSR-1a agonism; format: cell-based; set-up: Emax: unit not given here; details: HEK293/GHSR1a cells
Outline: as §1

[3] = system: C57BL/6J mice; assay: Food intake test in mouse (GHSR1a antagonists); format: in vivo; details: for inhibition in vivo at 10 mg/kg / inhibition in vivo at 30 mg/kg: Mus musculus; for inhibition in vivo at 10 mg/kg: ip, i.p. 10 mg/kg
Outline: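 Male C57BL/6J mice (18-22 g) were fasted overnight (16 h before dosing), then randomized by body weight to vehicle or test agent (n=6 each). Cumulative food intake was measured at 1, 2, 4, 8 and 24 hrs post-dose as premeasured food minus uneaten food.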

[4] = Metabolic Stability (H = Human); format: in vitro ADME
[5] = Metabolic Stability (M = Mouse); format: in vitro ADME
[6] = system: female Sprague-Dawley rats; assay: Binge eating model in non-estrous female rats (food restriction + stress, HPF intake); format: in vivo, rat; details: for HPF intake (binge eating) in R+S rats: 60 mg/kg by gavage 1 h before access to HPF
Procedure: In this Example, the therapeutic potential of compounds were tested for their ability to inhibit binge eating. The animal model used was developed to explore the combination of food restriction and stress. […] Considering the reliability and the robustness of this model, it was adopted to test the inventive compounds.
A total of N=117, 52-day-old female Sprague-Dawley rats (175-200 g) were used. Rats were acclimated in individual cages with metallic walls; the floor and the front wall made of metallic grid. The dimensions of the cage floor being 30 cm×30 cm; the cage is 30 cm high. A front door (30 cm×20 cm) made of metallic grid was positioned in the anterior wall of the cage to gain access to the inside of the cage; the remaining part of the front wall was equipped with a drinking burette.
Rats were kept in a room at constant temperature (20-22° C.) and humidity (45-55%) under a 12-h light/dark cycle (lights on at 08:00 am) with ad lib chow and water. All procedures were conducted in adherence to the European Community Directive for Care and Use of Laboratory Animals.
Rats were offered food pellets, 4RF18, Mucedola, Settimo Milanese, Italy (2.6 kcal/g). The Highly Palatable Food (HPF) was prepared by mixing:
Rats were exposed to 3 consecutive 8-day cycles followed by the final test on day 25:
a) the control group (NR+NS) had chow ad libitum for 4 days, on days 5-6 it received chow+HPF for 2 h; on days 7-8 it had chow ad libitum; on day 25 it was not exposed to stress;
b) the second group (R+S) had chow restricted to 66% of the normal intake for 4 days, was offered chow and HPF (2 h) on days 5-6 and only chow on days 7-8; on day 25 it […].
Body weights and food intake were recorded daily. Food intake is expressed as mean kilocalories per kilogram ingested±SEM.
Therefore, immediately after the test on day 25, vaginal smears were collected and analyzed under microscope to assess the ovarian phase, and data from rats in the estrous phase were not included in the statistical analysis. Vaginal smears were analyzed by an experienced experimenter blind to treatment conditions.
For 15 min, the container (China coffee cup) containing HPF is placed outside the cage; the container handle is hooked to the top wire wall of the cage in the hollow part where food pellets are usually offered. In these conditions, the animal is able to see the cup in which it received HPF on days 5, 6, 13, and 14 of the first two cycles, is able to see in part the HPF itself, and is able to smell its odour. In this 15-min period, the rat engages in repeated movements of the forepaws, head, and trunk aimed at obtaining the HPF, but it is not able to reach it. Rats undergo the stressful procedure between 10.00 and 12.00 am. After 15 min, the cup is placed inside the cage of the rats in the stress group (R+S), so that the HPF became accessible to the rat.
100 mg of each compound (H0816, H0860, H0847 and H0900) was accurately weighed and suspended in 13.33 ml of 0.5% carboxymethyl cellulose sodium salt (CMC, Sigma-Aldrich Cat. C4888, lot 120M0216V) solution. The lower dose solution was prepared by dilution of 30 mg/ml suspension with 0.5% CMC solution. Suspensions were prepared freshly on test day. Vehicle was composed by a solution of 0.5% carboxymethyl cellulose sodium salt and was prepared by dissolving 1 g of CMC in 200 ml of distilled water. 180 mg of Topiramate was accurately weighed and suspended in 12 ml of 0.5% CMC solution. Compounds (vehicle and active principles) were administered by gavage in a volume of 4 ml/kg of body weight one hour before access to HPF.
All data are expressed as the mean±s.e.m. and each value reflects the mean number of animals per group as described in the legends. For data evaluation, the analysis of variance (ANOVA) was used followed by post-hoc (Bonferroni's) test when appropriate. Statistical significance was set at P<0.05. The Software used for the Graphs was Origin 7.0. […]

[7] = PO 10 mg/kg + ANA (ANAM) 30 mg/kg mice
[8] = first test, acute administration (compounds 3 and 30 mg/kg, Topiramate 60 mg/kg)
[9] = second test, H0816 3, 10 and 30 mg/kg, Topiramate 60 mg/kg

T1 sequence (Q92847 whole entry): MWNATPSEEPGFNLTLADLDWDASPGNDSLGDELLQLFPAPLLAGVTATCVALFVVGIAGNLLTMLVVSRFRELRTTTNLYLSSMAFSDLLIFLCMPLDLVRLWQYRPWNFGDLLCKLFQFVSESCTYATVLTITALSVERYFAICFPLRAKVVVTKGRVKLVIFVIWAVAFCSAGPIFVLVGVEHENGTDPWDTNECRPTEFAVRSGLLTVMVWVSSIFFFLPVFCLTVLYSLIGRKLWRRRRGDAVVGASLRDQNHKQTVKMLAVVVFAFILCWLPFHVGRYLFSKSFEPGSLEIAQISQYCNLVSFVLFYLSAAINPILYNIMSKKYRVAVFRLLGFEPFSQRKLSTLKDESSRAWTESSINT

Compound | IC50 [1] | EC50 [2] | Metabolic Stability H [4] | Metabolic Stability M [5] | inhibition in vivo at 10 mg/kg ([3]; 1 h) | Mouse Food Intake, result in words ([3]; PO, dose not given) | further results
CC(NC(=O)N(C)C1CCN(C)CC1)c1ccc(C#Cc2cccs2)c(Cl)c1Cl (stereo not shown) [Compound H0737, 3-(1-(2,3-dichloro-4-(thiophen-2-ylethynyl)phenyl)ethyl)-1-methyl-1-(1-methylpiperidin-4-yl)urea] | 13 nM | > 30000 nM | High H High M | High H High M | 75% | NSE | –
CC(NC(=O)N(C)C1CCN(C)CC1)c1ccc(C#Cc2nccs2)c(Cl)c1Cl (stereo not shown) [Compound H0754, 3-(1-(2,3-dichloro-4-(thiazol-2-ylethynyl)phenyl)ethyl)-1-methyl-1-(1-methylpiperidin-4-yl)urea] | 11 nM | > 30000 nM | High H High M | High H High M | 74% | no effect | Mouse Food Intake, result in words ([3]; PO + ANA (ANAM), mice, dose not given): no effect
CC(NC(=O)N(C)C1CCN(C)CC1)c1ccc(/C=C/c2cccs2)c(Cl)c1Cl (stereo not shown) [Compound H0767, (E)-3-(1-(2,3-dichloro-4-(2-(thiophen-2-yl)vinyl)phenyl)ethyl)-1-methyl-1-(1-methylpiperidin-4-yl)urea] | 37 nM | > 30000 nM | High H High M | High H High M | 88% | NSE | –
C[C@@H](NC(=O)N(C)C1CCN(C)CC1)c1ccc(-c2cncc(F)n2)c(Cl)c1Cl [Compound H0848, (R)-3-(1-(2,3-dichloro-4-(6-fluoropyrazin-2-yl)phenyl)ethyl)-1-methyl-1-(1-methylpiperidin-4-yl)urea] | 432 nM | > 30000 nM | Medium | High | – | – | Mouse Food Intake, result in words [3, 7]: PO 10 mg/kg + ANA 30 mg/kg mice: NSE
CC1(C)O[C@@H]2[C@@H](CO[C@@]3(COS(N)(=O)=O)OC(C)(C)O[C@@H]23)O1 [Topiramate, reference compound] | – | – | – | – | – | – | HPF intake (binge eating) in R+S rats ([6]; first test, vs R+S vehicle, 60 mg/kg): confirmed its inhibitory effect; also recorded: statistically significant at all time points; also recorded: completely abolished BE episode; 2-h chow food intake during binge eating test [6, 8]: did not modify 2-h chow intake; 24-h chow food intake after binge eating test [6, 8]: did not modify 24-h chow intake; HPF intake (binge eating) in R+S rats ([6]; second test): statistically significant at all time points; 2-h chow intake [6, 9]: did not modify; 24-h chow intake [6, 9]: did not modify

Continued, in another order:

IC50 [1] | EC50 [2] | Metabolic Stability H [4] | Metabolic Stability M [5] | Compound | inhibition in vivo at 10 mg/kg ([3]; 1 h) | Mouse Food Intake, result in words ([3]; PO, dose not given) | further results
7 nM | > 30000 nM | High H High M | High H High M | CC(NC(=O)N(C)C1CCN(C)CC1)c1ccc(C#Cc2ccsc2)c(Cl)c1Cl (stereo not shown) [Compound H0759, 3-(1-(2,3-dichloro-4-(thiophen-3-ylethynyl)phenyl)ethyl)-1-methyl-1-(1-methylpiperidin-4-yl)urea] | 85% | no effect | –
0.2 nM | 3 nM | High H High M | High H High M | CN1CCC(N(O)C(=O)NC(CC2CC2)c2ccc(-c3cnccn3)c(Cl)c2Cl)CC1 (stereo not shown) [Compound H0761, 3-(2-cyclopropyl-1-(2,3-dichloro-4-(pyrazin-2-yl)phenyl)ethyl)-1-hydroxy-1-(1-methylpiperidin-4-yl)urea] | 63% | NSE | Emax [2]: 2907; Mouse Food Intake, result in words ([3]; PO, fasted mice, dose not given): No activity; FI increase ([3]; PO, fed mice): 215%; Mouse Food Intake, result in words ([3]; fed mice, route not clear): No activity
10 nM | 14 nM | High H High M | High H High M | CC(NC(=O)N(C)C1CCN(C)CC1)c1ccc(C#CC2CC2)c(Cl)c1Cl (stereo not shown) [Compound H0764, 3-(1-(2,3-dichloro-4-(cyclopropylethynyl)phenyl)ethyl)-1-methyl-1-(1-methylpiperidin-4-yl)urea] | 91% | – | Emax [2]: 1352; inhibition in vivo at 30 mg/kg ([3]; po, 2 h, PO 30 mg/kg): 70%; inhibition in vivo at 30 mg/kg ([3]; sc, 1 h, SC 30 mg/kg): 53%
3 nM | > 30000 nM | High | Medium | CC(NC(=O)N(C)[C@@H]1CCN(C)CC1(C)C)c1ccc(-c2cnccn2)c(Cl)c1Cl (stereo partly drawn) [Compound H0824, 2-(1-(2,3-dichloro-4-(pyrazin-2-yl)phenyl)ethyl)-1-methyl-1-((R)-1,3,3-trimethylpiperidin-4-yl)urea] | – | – | Mouse Food Intake, result in words ([3]; PO 30 mg/kg + ANA mice): PO 30 mg/kg + ANA mice: NSE
3 nM | > 30000 nM | High H High M | High H High M | CCC(NC(=O)N(C)C1CCN(C)CC1)c1ccc(-c2cnccn2)c(Cl)c1Cl (stereo not shown) [Compound H0829, 3-(1-(2,3-dichloro-4-(pyrazin-2-yl)phenyl)propyl)-1-methyl-1-(1-methylpiperidin-4-yl)urea] | – | – | Mouse Food Intake, result in words [3, 7]: PO 10 mg/kg + ANA 30 mg/kg mice: NSE
